In ChEMBL document CHEMBL4393707, “Synthesis and evaluation of new quinazolin-4(3H)-one derivatives as potent antibacterial agents against multidrug resistant Staphylococcus aureus and Mycobacterium tuberculosis” (Eur J Med Chem, 2019):
Values after ≈ are worked out from the molar mass of the structure shown. Active and inactive are the calls of the source. The calls are words filed in the database; no cut-off is given here.

Experiments:
Staphylococcus aureus [1] = test: Synergistic antibacterial activity against Staphylococcus aureus ATCC 29213 incubated for 24 hrs in presence of linezolid by checkerboard titration assay; format: functional; details: ATCC 29213, 24 h
Staphylococcus aureus [2] = test: Synergistic antibacterial activity against Staphylococcus aureus ATCC 29213 incubated for 24 hrs in presence of gentamycin by checkerboard titration assay; format: functional; details: ATCC 29213, 24 h
Staphylococcus aureus [3] = test: Antibacterial activity against methicillin-resistant Staphylococcus aureus NR10191 incubated for 16 to 18 hrs by broth microdilution assay; format: functional
Pseudomonas aeruginosa = test: Antibacterial activity against Pseudomonas aeruginosa ATCC 27853 incubated for 16 to 18 hrs by broth microdilution assay; format: functional
[4] = test system: Mycobacterium tuberculosis; test: Antitubercular activity against Mycobacterium tuberculosis H37Rv after 7 days by resazurin dye based assay; format: functional; details: 168 h
[5] = Cytotoxicity against African green monkey Vero cells assessed as reduction in cell viability after 72 hrs by MTT assay; format: cell-based; details: chlorocebus sabaeus
[6] = Selectivity index, ratio of CC50 for African green monkey Vero cells to MIC for Staphylococcus aureus ATCC 29213; format: toxicity; details: read-out: Selectivity Index
Staphylococcus aureus [7] = test: Potentiation of ceftazidime-induced antibacterial activity against Staphylococcus aureus ATCC 29213 assessed as ceftazidime MIC incubated for 24 hrs by checkerboard titration assay (reference value: […] ug/ml); format: functional; details: ATCC 29213, 24 h
Staphylococcus aureus [8] = test: Potentiation of gentamycin-induced antibacterial activity against Staphylococcus aureus ATCC 29213 assessed as gentamycin MIC incubated for 24 hrs by checkerboard titration assay (reference value: 0.25 ug/ml); format: functional; details: ATCC 29213, 24 h
Staphylococcus aureus [9] = test: Potentiation of levofloxacin-induced antibacterial activity against Staphylococcus aureus ATCC 29213 assessed as levofloxacin MIC incubated for 24 hrs by checkerboard titration assay (reference value: 0.25 ug/ml); format: functional; details: ATCC 29213, 24 h
Staphylococcus aureus [10] = test: Potentiation of meropenem-induced antibacterial activity against Staphylococcus aureus ATCC 29213 assessed as meropenem MIC incubated for 24 hrs by checkerboard titration assay (reference value: 0.25 ug/ml); format: functional; details: ATCC 29213, 24 h
Staphylococcus aureus [11] = test: Potentiation of rifampicin-induced antibacterial activity against Staphylococcus aureus ATCC 29213 assessed as rifampicin MIC incubated for 24 hrs by checkerboard titration assay (reference value: […] ug/ml); format: functional; details: ATCC 29213, 24 h
Staphylococcus aureus [12] = test: Synergistic antibacterial activity against Staphylococcus aureus ATCC 29213 assessed as FIC incubated for 24 hrs in presence of linezolid by checkerboard titration assay; format: functional
Staphylococcus aureus [13] = test: Synergistic antibacterial activity against Staphylococcus aureus ATCC 29213 assessed as FIC incubated for 24 hrs in presence of levofloxacin by checkerboard titration assay; format: functional
Staphylococcus aureus [14] = test: Synergistic antibacterial activity against Staphylococcus aureus ATCC 29213 assessed as FIC incubated for 24 hrs in presence of minocycline by checkerboard titration assay; format: functional
Staphylococcus aureus [15] = test: Synergistic antibacterial activity against Staphylococcus aureus ATCC 29213 assessed as FIC incubated for 24 hrs in presence of vancomycin by checkerboard titration assay; format: functional
Staphylococcus aureus [16] = test: Potentiation of ceftazidime-induced antibacterial activity against Staphylococcus aureus ATCC 29213 assessed as FIC incubated for 24 hrs by checkerboard titration assay; format: functional
Staphylococcus aureus [17] = test: Potentiation of daptomycin-induced antibacterial activity against Staphylococcus aureus ATCC 29213 assessed as FIC incubated for 24 hrs by checkerboard titration assay; format: functional
Staphylococcus aureus [18] = test: Potentiation of levofloxacin-induced antibacterial activity against Staphylococcus aureus ATCC 29213 assessed as FIC incubated for 24 hrs by checkerboard titration assay; format: functional
Staphylococcus aureus [19] = test: Potentiation of meropenem-induced antibacterial activity against Staphylococcus aureus ATCC 29213 assessed as FIC incubated for 24 hrs by checkerboard titration assay; format: functional
Staphylococcus aureus [20] = test: Potentiation of rifampicin-induced antibacterial activity against Staphylococcus aureus ATCC 29213 assessed as FIC incubated for 24 hrs by checkerboard titration assay; format: functional
Staphylococcus aureus [21] = test: Potentiation of vancomycin-induced antibacterial activity against Staphylococcus aureus ATCC 29213 assessed as FIC incubated for 24 hrs by checkerboard titration assay; format: functional
Staphylococcus aureus [22] = test: Synergistic antibacterial activity against Staphylococcus aureus ATCC 29213 assessed as sum of FIC for test compound in presence of ceftazidime and FIC for ceftazidime in presence of test compound incubated for 24 hrs by checkerboard titration assay; format: functional
Staphylococcus aureus [23] = test: Synergistic antibacterial activity against Staphylococcus aureus ATCC 29213 assessed as sum of FIC for test compound in presence of levofloxacin and FIC for levofloxacin in presence of test compound incubated for 24 hrs by checkerboard titration assay; format: functional
Staphylococcus aureus [24] = test: Synergistic antibacterial activity against Staphylococcus aureus ATCC 29213 assessed as sum of FIC for test compound in presence of minocycline and FIC for minocycline in presence of test compound incubated for 24 hrs by checkerboard titration assay; format: functional
[25] = Selectivity index, ratio of CC50 for African green monkey Vero cells to MIC for Mycobacterium tuberculosis H37Rv; format: toxicity; details: read-out: Selectivity Index
Staphylococcus aureus [26] = test: Antibacterial activity against Staphylococcus aureus ATCC 29213 assessed as time required to increase 1 log10 CFU at MIC incubated for 1 hr followed by compound washout and measured at 1 hr intervals (reference value: 2 hrs); format: functional
Staphylococcus aureus [27] = test: Antibacterial activity against Staphylococcus aureus ATCC 29213 assessed as time required to increase 1 log10 CFU at 10 times MIC incubated for 1 hr followed by compound washout and measured at 1 hr intervals (reference value: 2 hrs); format: functional
Staphylococcus aureus [28] = test: Antibacterial activity against Staphylococcus aureus ATCC 29213 assessed as post antibiotic effect time at MIC incubated for 1 hr followed by compound washout and measured at 1 hr intervals (reference value: 0 hrs); format: functional
Staphylococcus aureus [29] = test: Antibacterial activity against Staphylococcus aureus ATCC 29213 assessed as post antibiotic effect time at 10 times MIC incubated for 1 hr followed by compound washout and measured at 1 hr intervals (reference value: 0 hrs); format: functional
Staphylococcus aureus [30] = test: Antibiofilm activity against Staphylococcus aureus ATCC 29213 at 10 times MIC incubated 48 hrs by crystal violet staining based assay relative to control; format: functional
Staphylococcus aureus [31] = test: Antimicrobial activity against Staphylococcus aureus ATCC 29213 infected in BALB/c mouse model of neutropenic thigh infection assessed reduction in bacterial levels in thigh at 25 mg/kg, ip administered 3 hrs post infection twice at interval of 3 hrs between injections and measured after 24 hrs; format: functional, organism-based
Staphylococcus aureus [32] = test: Antimicrobial activity against Staphylococcus aureus ATCC 29213 infected in BALB/c mouse model of neutropenic thigh infection assessed reduction in bacterial levels in thigh at 50 mg/kg, ip administered 3 hrs post infection twice at interval of 3 hrs between injections and measured after 24 hrs; format: functional, organism-based
Staphylococcus aureus [33] = test: Antimicrobial activity against Staphylococcus aureus ATCC 29213 infected in ip dosed BALB/c mouse model of neutropenic thigh infection assessed reduction in bacterial levels administered 3 hrs post infection twice at interval of 3 hrs between injections and measured after 24 hrs; format: functional, organism-based

N#Cc1ccc(/C=C/c2nc3cccc(F)c3c(=O)n2-c2cccc(O)c2)cc1
MIC (Staphylococcus aureus [1]): 7.8 ng/mL
MIC (Staphylococcus aureus [2]): 7.8 ng/mL
MIC (Staphylococcus aureus [3]): < 125 ng/mL
MIC (Pseudomonas aeruginosa): > 64000 ng/mL
MIC [4]: 8000 ng/mL (≈ 20.9 µM)
CC50 at 72 h [5]: 5000 to 100000 ng/mL (≈ 13 to 261 µM)
selectivity ratio [6]: > 83.4
MIC (Staphylococcus aureus [7]): 31.2 ng/mL
MIC (Staphylococcus aureus [8]): 1.9 ng/mL
MIC (Staphylococcus aureus [9]): 0.9 ng/mL
MIC (Staphylococcus aureus [10]): 0.9 ng/mL
MIC (Staphylococcus aureus [11]): 0.03 ng/mL
FIC (Staphylococcus aureus [12]): 0.0625
FIC (Staphylococcus aureus [13]): 0.0625
FIC (Staphylococcus aureus [14]): 0.0625
FIC (Staphylococcus aureus [15]): 0.0625
FIC (Staphylococcus aureus [16]): 0.0039
FIC (Staphylococcus aureus [17]): 0.0019
FIC (Staphylococcus aureus [18]): 0.0036
FIC (Staphylococcus aureus [19]): 0.0018
FIC (Staphylococcus aureus [20]): 0.002
FIC (Staphylococcus aureus [21]): 0.0039
FIC (Staphylococcus aureus [22]): 0.0664
FIC (Staphylococcus aureus [23]): 0.0661
FIC (Staphylococcus aureus [24]): 0.0697
selectivity ratio [25]: > 12.5

N#Cc1ccc(/C=C/c2nc3ccccc3c(=O)n2-c2ccc(C(=O)O)c(O)c2)cc1
MIC (Staphylococcus aureus [1]): 1.9 ng/mL
MIC (Staphylococcus aureus [2]): 1.9 ng/mL
MIC (Staphylococcus aureus [3]): < 125 ng/mL
MIC (Pseudomonas aeruginosa): > 64000 ng/mL
MIC [4]: 64000 ng/mL (≈ 156 µM)
CC50 at 72 h [5]: > 5000 ng/mL
selectivity ratio [6]: > 167
MIC (Staphylococcus aureus [7]): 31.2 ng/mL
MIC (Staphylococcus aureus [8]): 1.9 ng/mL
MIC (Staphylococcus aureus [9]): 0.9 ng/mL
MIC (Staphylococcus aureus [10]): 0.9 ng/mL
MIC (Staphylococcus aureus [11]): 0.03 ng/mL
FIC (Staphylococcus aureus [12]): 0.032
FIC (Staphylococcus aureus [13]): 0.032
FIC (Staphylococcus aureus [14]): 0.032
FIC (Staphylococcus aureus [15]): 0.032
FIC (Staphylococcus aureus [16]): 0.0019
FIC (Staphylococcus aureus [17]): 0.003
FIC (Staphylococcus aureus [18]): 0.003
FIC (Staphylococcus aureus [19]): 0.003
FIC (Staphylococcus aureus [20]): 0.002
FIC (Staphylococcus aureus [21]): 0.003
FIC (Staphylococcus aureus [22]): 0.034
FIC (Staphylococcus aureus [23]): 0.036
FIC (Staphylococcus aureus [24]): 0.039
Time (Staphylococcus aureus [26]): 2 h
Time (Staphylococcus aureus [27]): 4 h
Time (Staphylococcus aureus [28]): 0 h
Time (Staphylococcus aureus [29]): 2 h
Activity (Staphylococcus aureus [30]): 14.1%
Activity (Staphylococcus aureus [31]): Active
Activity (Staphylococcus aureus [32]): Active
Activity (Staphylococcus aureus [33]): Dose-dependent effect
